Data published in patent US20090111825A1, “THIOPHENE 1,2,4-TRIAZOLE DERIVATIVES AS MODULATORS OF MGLUR5” (priority 2007, published 2009).

Columns and labels:
[1] = Determination of brain to plasma ratio in rat; format: in vivo; details: brain and plasma, female Sprague Dawley rats, drug in brain over drug in plasma, read-out: Brain/Plasma Ratio of compound in Rat
Description: Brain to plasma ratios are estimated in female Sprague Dawley rats. The compound is dissolved in water or another appropriate vehicle. For determination of brain to plasma ratio the compound is administrated as a subcutaneous, or an intravenous bolus injection, or an intravenous infusion, or an oral administration. At a predetermined time point after the administration a blood sample is taken with cardiac puncture. The rat is terminated by cutting the heart open, and the brain is immediately retained. The blood samples are collected in heparinized tubes and centrifuged within 30 minutes, in order to separate the plasma from the blood cells. The plasma is transferred to 96-well plates and stored at −20° C. until analysis. The brains are divided in half, and each half is placed in a pre-tarred tube and stored at −20° C. until analysis. Prior to the analysis, the brain samples are thawed and 3 mL/g brain tissue of distilled water is added to the tubes. The brain samples are sonicated in an ice bath until the samples are homogenized. Both brain and plasma samples are precipitated with acetonitrile. After centrifugation, the supernatant is diluted with 0.2% formic acid. Analysis is performed on a short reversed-phase HPLC column with rapid gradient elution and MSMS detection using a triple quadrupole instrument with electrospray ionization and Selected Reaction Monitoring (SRM) acquisition. Liquid-liquid extraction may be used as an alternative sample clean-up. The samples are extracted, by shaking, to an organic solvent after addition of a suitable buffer. An aliquot of the organic layer is transferred to a new vial and evaporated to dryness under a stream of nitrogen. After reconstitution of the residuals the samples are ready for injection onto the HPLC column.

human mGluR5d = target: T1, human mGluR5d (Homo sapiens, UniProt P41594); experiment: FLIPR assay, mobilization of intracellular calcium in cells expressing human mGluR5d; format: cell-based; details: antagonism of agonist response, read-out: FLIPR hmGluR5d
T1 construct: expressed in transfected cells
T1 sequence (P41594 21-942 isoform P41594-3 limits assumed): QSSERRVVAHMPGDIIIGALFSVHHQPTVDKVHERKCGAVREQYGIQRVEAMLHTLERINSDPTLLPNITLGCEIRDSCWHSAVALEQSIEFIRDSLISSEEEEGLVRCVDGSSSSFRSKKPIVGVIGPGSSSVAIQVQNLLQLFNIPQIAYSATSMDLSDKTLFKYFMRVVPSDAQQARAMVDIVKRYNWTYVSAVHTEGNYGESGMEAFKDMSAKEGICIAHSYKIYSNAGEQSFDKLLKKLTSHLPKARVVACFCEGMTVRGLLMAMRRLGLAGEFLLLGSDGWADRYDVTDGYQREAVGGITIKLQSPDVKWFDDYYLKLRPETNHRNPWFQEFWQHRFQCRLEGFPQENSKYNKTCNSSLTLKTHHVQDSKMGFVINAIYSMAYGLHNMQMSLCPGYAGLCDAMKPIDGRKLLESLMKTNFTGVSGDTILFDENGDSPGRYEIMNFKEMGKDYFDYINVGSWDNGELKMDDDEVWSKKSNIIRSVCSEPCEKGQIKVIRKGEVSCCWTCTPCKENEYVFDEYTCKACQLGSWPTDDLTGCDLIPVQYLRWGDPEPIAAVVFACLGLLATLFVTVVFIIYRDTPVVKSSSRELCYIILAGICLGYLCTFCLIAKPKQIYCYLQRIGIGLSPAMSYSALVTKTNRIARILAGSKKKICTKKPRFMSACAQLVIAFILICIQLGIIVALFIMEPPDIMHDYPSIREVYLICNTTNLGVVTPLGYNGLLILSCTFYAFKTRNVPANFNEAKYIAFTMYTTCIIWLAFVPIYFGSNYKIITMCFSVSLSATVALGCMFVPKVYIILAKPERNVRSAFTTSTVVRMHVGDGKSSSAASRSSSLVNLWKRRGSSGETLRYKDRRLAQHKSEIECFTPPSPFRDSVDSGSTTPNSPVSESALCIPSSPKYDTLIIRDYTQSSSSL
From the text: The properties of the compounds of the invention can be analyzed using standard assays for pharmacological activity. Examples of glutamate receptor assays are well known in the art as described in for example Aramori et al., Neuron 8:757 (1992), Tanabe et al., Neuron 8:169 (1992), Miller et al., J. Neuroscience 15: 6103 (1995), Balazs, et al., J. Neurochemistry 69:151 (1997). The methodology described in these publications is incorporated herein by reference. Conveniently, the compounds of the invention can be studied by means of an assay (FLIPR) that measures the mobilization of intracellular calcium, [Ca^2+]i in cells expressing mGluR5 or another assay (IP3) that measures inositol phosphate turnover.
Cells expressing human mGluR5d as described in WO97/05252 cultured in a mixture of high glucose DMEM with Glutamax (31966-021)(500 mL), 10% dialyzed fetal bovine serum (Hyclone #SH30079.03)(56 mL), 200 μg/mL Hygromycin B (Invitrogen 45-0430, 50 mg/mL)(2.2 mL), 200 μg/mL Zeocin (Invitrogen #R250-01; 100 mg/mL)(1.1 mL) are seeded at a density of 100,000 cells per well on collagen coated clear bottom 96-well plates with black sides and cells were allowed to adhere over night before experiments. All assays are done in a buffer containing 146 mM NaCl, 5 mM KCl, 1 mM MgCl2, 1 mM CaCl2, 20 mM HEPES, 1 mg/mL glucose and 1 mg/mL BSA Fraction IV (pH 7.4). Cell cultures in the 96-well plates are loaded for 60 minutes in the above mentioned buffer containing 6 μM of the acetoxymethyl ester form of the fluorescent calcium indicator fluo-3 (Molecular Probes, Eugene, Oreg.) in 0.025% pluronic acid (a proprietary, non-ionic surfactant polyol—CAS Number 9003-11-6). Following the loading period the fluo-3 buffer is removed and replaced with fresh assay buffer. FLIPR experiments are done using a laser setting of 0.700 W and a 0.4 second CCD camera shutter speed with excitation and emission wavelengths of 488 nm and 562 nm, respectively. Each experiment is initiated with 160 μl of buffer present in each well of the cell plate. A 40 μl addition from the antagonist plate was followed by a 50 μL addition from the agonist plate. A 30 minutes, in dark at 25° C., interval separates the antagonist and agonist additions. The fluorescence signal is sampled 50 times at 1-second intervals followed by 3 samples at 5-second intervals immediately after each of the two additions. Responses are measured as the difference between the peak heights of the response to agonist) less the background fluorescence within the sample period. IC50 determinations are made using a linear least squares fitting program.

Compound | Kp [1] | IC50 (human mGluR5d)
Cn1c(-c2cn[nH]c(=O)c2)nnc1N1[C@@H](c2cc(-c3csc(Cl)c3)on2)C[C@H]2C[C@H]21 [Example 10.1, 5-(5-{(1R,3R,5R)-3-[5-(5-Chloro-3-thienyl)isoxazol-3-yl]-2-azabicyclo[3.1.0]hex-2-yl}-4-methyl-4H-1,2,4-triazol-3-yl)pyridazin-3(2H)-one] | 0.06 | 34 nM
Cn1c(-c2cc[nH]c(=O)c2)nnc1N1[C@@H](c2cc(-c3csc(Cl)c3)on2)C[C@H]2C[C@H]21 [Example 10.2, 4-(5-{(1R,3R,5R)-3-[5-(5-Chloro-3-thienyl)isoxazol-3-yl]-2-azabicyclo[3.1.0]hex-2-yl}-4-methyl-4H-1,2,4-triazol-3-yl)pyridin-2(1H)-one] | < 0.01 | 35 nM
Cn1c(-c2cnn(C)c(=O)c2)nnc1N1CCC[C@@H]1c1cc(-c2csc(Cl)c2)on1 [Example 10.3, 5-(5-{(2R)-2-[5-(5-Chloro-3-thienyl)isoxazol-3-yl]pyrrolidin-1-yl}-4-methyl-4H-1,2,4-triazol-3-yl)-2-methylpyridazin-3(2H)-one] | 0.16 | 61 nM
Cn1c(-c2cn[nH]c(=O)c2)nnc1N1CCC[C@@H]1c1cc(-c2csc(Cl)c2)on1 [Example 10.4, 5-(5-{(2R)-2-[5-(5-Chloro-3-thienyl)isoxazol-3-yl]pyrrolidin-1-yl}-4-methyl-4H-1,2,4-triazol-3-yl)pyridazin-3(2H)-one] | < 0.01 | 39 nM
Cn1c(-c2ccn(C)c(=O)c2)nnc1N1CCC[C@@H]1c1cc(-c2csc(Cl)c2)on1 [Example 10.5, 4-(5-{(2R)-2-[5-(5-Chloro-3-thienyl)isoxazol-3-yl]pyrrolidin-1-yl}-4-methyl-4H-1,2,4-triazol-3-yl)-1-methylpyridin-2(1H)-one] | 0.03 | 44 nM
Cn1c(-c2cc[nH]c(=O)c2)nnc1N1CCC[C@@H]1c1cc(-c2csc(Cl)c2)on1 [Example 10.6, 4-(5-{(2R)-2-[5-(5-Chloro-3-thienyl)isoxazol-3-yl]pyrrolidin-1-yl}-4-methyl-4H-1,2,4-triazol-3-yl)pyridin-2(1H)-one] | < 0.01 | 35 nM
